The source of these data is patent publication US10517926B2, “Oligopeptide having proinflammatory cytokine secretion-inhibiting activity” (Osaka University, priority 2015, dated 2019).

The test system of experiment [1] is neuron-glia mixed culture. Description: TNFα secretion by LPS in neuron-glia mixed culture system. It is filed as cell-based, mouse. As for the experimental part: Neuronal tissue (a mixture of neurons and glial cells) was removed from a mouse fetus 21 days after fertilization (21st fetal day), and cultured in Neurobasal medium (+B-27, +5% HS) for 9 days. Then, the cells were divided into 3 groups (A to C groups), and subjected to the following treatments.
The cells were cultured for 24 hours after the medium was changed to a medium (Neurobasal A/N2 supplement) containing MHP1 (final concentration: 1, 10, 30, or 50 μg/ml). Then, LPS (final concentration: 10 μg/ml) was added to the medium, and the cells were further cultured for 24 hours. After culture, the concentration of TNFα in the medium was measured by the ELISA method.
The cells were cultured for 24 hours after the medium was changed to a medium (Neurobasal A/N2 supplement) containing MHP1 (final concentration: 30 or 50 μg/ml) and LPS (final concentration: 10 μg/ml). After culture, the concentration of TNFα in the medium was measured by the ELISA method.

In experiment [2] the test system is RANK knockdown RAW264.7 cells. Description: RANK dependency: cytokine secretion in RANK knockdown cells. It is filed as cell-based, mouse. To be noted: for secretion of IL-6: FIG. 10; for secretion of TNFα: FIG. 11. As for the experimental part: RAW264.7 cells were suspended in a DMEM medium (+10% FBS), seeded on a 24-well plate, and cultured at 37° C. at a CO2 concentration of 5%. To 100 μl of serum-free DMEM medium, 37.5 ng (final concentration: 5 nM) of siRNA against RANK (a double strand of the sequence represented by SEQ ID NO: 17 and the sequence represented by SEQ ID NO: 18, produced by GeneDesign) or 37.5 ng (final concentration: 5 nM) of control siRNA (a double strand of the sequence represented by SEQ ID NO: 19 and the sequence represented by SEQ ID NO: 20, produced by GeneDesign), and 3 μl of HiPerFect Transfection Reagent (QIAGEN) were added, and the resultant was allowed to stand at room temperature for 10 minutes. This was added to the RAW264.7 cell culture medium. After culture at 37° C. at a CO^2 concentration of 5% for 24 hours, the cells were collected. A protein extract was obtained from the cells by a standard method, and RANK in this extract was detected at a dilution concentration of 1/100 by the Western blotting method (anti-RANK antibody: anti-mRANK (Cat. No. AF692), produced by R&D Systems). […] FIG. 9 confirmed that RANK was knocked down by siRNA against RANK (comparison between lane 2 and lane 3).
MHP1 and LPS were made to act on RANK knockdown cells, as in Example 3, and the concentrations of IL-6 and TNFα in the medium were measured by the ELISA method. FIGS. 10 and 11 show the results.

The subject of experiment [3] is osteoclast precursor cells. Description: Osteoclast differentiation, Osteoclast Culture Kit (TRAP and nuclear staining). It is filed as cell-based. As to the method:
Osteoclast Culture Kit V-2 (OSC33, produced by Cosmo Bio Co., Ltd.) was used. According to the manual of the kit, culture of osteoclast precursor cells was started in the presence of M-CSF (final concentration: 50 ng/ml) in the A and B groups, and in the presence of M-CSF (final concentration: 50 ng/ml) and MHP1 (final concentration: 30, 50, or 100 μg/ml) in the C and D groups. Thereafter, 24 hours to 7 days after the start of culture, the A group was cultured in the presence of M-CSF (final concentration: 50 ng/ml), the B group was cultured in the presence of M-CSF (final concentration: 50 ng/ml) and RANKL protein (final concentration: 50 ng/ml), the C group was cultured in the presence of M-CSF (final concentration: 50 ng/ml) and MHP1 (final concentration: 30, 50, or 100 μg/ml), and the D group was cultured in the presence of M-CSF (final concentration: 50 ng/ml), RANKL protein (final concentration: 50 ng/ml), and MHP1 (final concentration: 30, 50, or 100 μg/ml). After culture, the cells were subjected to TRAP staining and nuclear staining according to a standard method.

Experiment [4] concerns cerebral ischemia mice (C57BL6/J). Description: Necrosis after cerebral ischemia, intraventricular administration. It is filed as in vivo, mouse. As for the experimental part:
A cerebral ischemic area was artificially developed in wild-type mice (C57BL6/J) using embolic suture. Specifically, nylon suture was inserted from the right external carotid artery into the intracranial internal carotid artery, and the right middle cerebral artery was temporarily occluded. The embolic suture was removed 40 minutes after the formation of the ischemic area, and the blood was reperfused. Four hours after the formation of the ischemic area, 2 μl of MHP1 solution (0.625 μg/2 μl, the solvent was artificial cerebrospinal fluid (aCSF)) or 2 μl of aCSF was administered by injection into the ventricle of the mice with a neurological severe score of 1 or 2. Separately, a group to which edaravone, which is a known brain-protecting agent, was administered was also produced (aCSF intraventricular administration+3 mg/kg of edaravone i.p., administered every 12 hours). The brain was removed 72 hours after the formation of the ischemic area, and a brain slice including left and right brain portions in positions of 1.4, 0.7, and 0 mm in the front and rear of the bregma was produced. The slice was stained with cresyl violet. The area of the […] was regarded as the cerebral infarct area (necrosis site), and the ratio of cerebral infarct area was determined by the following formula. […] Ratio of cerebral infarct area=([normal side brain area]−([cerebral infarct side total area]−[cerebral infarct area])/normal side brain area)×100
Furthermore, the ratio of F4/80-positive cells (activated macrophage/microglia) in the cerebral infarction hemisphere in a position of 0.7 mm from the bregma (/middle cerebral artery region), and the number of the cells were measured.

Experiment [5] has as its system cerebral infarction model mice. In words: Osteoclasts after cerebral infarction in vivo (TRAP staining of radius). Set-up: species or system mouse. To be noted: 300 μG i.v. then 336 μg s.c.; radius distal portion, paralyzed side, 48 hours; FIG. 24. As for the experimental part:
Cerebral infarction models were produced in the same manner as in Example 10. Four hours after the production of the cerebral infarction models, 300 μG/150 μL of MHP1 administration solution was administered through the cervical vein. Thereafter, 336 μg was continuously administered by subcutaneous injection using an Alzet pump for 21 hours. Forty-eight hours after the production of the cerebral infarction models, the radius distal portion of the left hand (paralyzed side) was stained with TRAP, and the ratio of the stained region (osteoclast surface) relative to the bone surface was calculated based on the obtained staining images.

Setting [6] is: RANK knockdown cells (siRNA against RANK).
[7] abbreviates: control siRNA-introduced RAW264.7 cells.

As to “LMVYVVKTSIKIPSSHNLMKGGSTKNWSGN (listed as Mus musculus) [MHP1]”, the “increase in the amount of TNFα secretion by LPS” value is “suppressed” in experiment [1] (pretreatment (A group), MHP1 1, 10, 30 or 50 μg/ml 24 hours before LPS 10 μg/ml, FIG. 5) and “suppressed” in experiment [1] (simultaneous treatment (C group), MHP1 30 or 50 μg/ml with LPS 10 μg/ml, 24 hours, FIG. 7). For the same sequence, the “secretion of IL-6” value is recorded as “not inhibited” in experiment [2] (setting [6]) and “inhibited” in experiment [2] (setting [7]). Besides, the “secretion of TNFα” value in experiment [2] (setting [6]) was “not inhibited”; in experiment [2] (setting [7]) it was “inhibited”. The “differentiation of osteoclasts promoted by RANKL” value in experiment [3] (M-CSF 50 ng/ml + RANKL protein 50 ng/ml + MHP1 30, 50 or 100 μg/ml, FIG. 13 (a)) is reported as “inhibited”. In experiment [3] (with M-CSF 50 ng/ml, MHP1 30, 50 or 100 μg/ml or RANKL protein 50 ng/ml, FIG. 13), the “differentiation of osteoclasts by the substance itself” value was “did not occur”. Further, the “necrosis occurring after cerebral ischemia (ratio of cerebral infarct area)” value in experiment [4] (0.625 μg/2 μl into the ventricle 4 hours after ischemia, brain at 72 hours, FIG. 15) is reported as “could be inhibited”. Also, the “expression of activated macrophage/microglia (F4/80-positive cells)” value in experiment [4] (cerebral infarction hemisphere, 0.7 mm from the bregma, FIG. 16) is on record as “suppressed”. In addition, in experiment [4] (one MHP1 administration vs edaravone 3 mg/kg i.p. every 12 hours, FIG. 15), the “degree of inhibition of necrosis compared with edaravone administration” value is on record as “higher than edaravone administration”. The “increase in the number of TRAP-positive osteoclasts on the bone ridge due to cerebral infarction” value in experiment [5] was “suppressed”.
